Results: patent publication US20220193029A1, “BRYOSTATIN COMPOUNDS FOR ENHANCEMENT OF IMMUNOTHERAPY” (priority 2019, published 2022)

Legend:
[1] = tested on: PKC; test: cell-free PKC binding assay, isoform not given; parameters: species or system human
Experimental: (§1) Because a prerequisite for PKC pathway involvement is binding to PKC, compounds were initially evaluated for PKC affinity in a cell-free competitive binding assay with tritiated phorbol dibutyrate ([^3H]-PDBu). Assays were performed with representative members of both the conventional (PKCα) and novel (PKCδ) PKC families. Subsequently, compounds were assayed for PKC activation in living cells using an isoform translocation assay.
(§2) Assay PKC was prepared by dissolving a 4 μg aliquot of the indicated recombinant human PKC isoform (Invitrogen) into 11.6 mL of PKC binding assay buffer (this amount is sufficient for two assays). The diluted PKC was stored on ice for immediate use.
(§3) Triplicate data points were obtained for each analog concentration. For each data point, 280 μL of “Master Mix” Solution and 20 μL of analog compound at a specified concentration were added to a polypropylene tube. […] Maximal ^3H-PDBu binding was assessed in triplicate by substitution of the analog compound with 20 μL DMSO. The solutions were vortexed to mix, incubated at 37° C. for 10 min, and incubated on ice for at least 30 min prior to filtration. Using a Brandel Harvester, the assay contents from each polypropylene tube were vacuum-filtered through polyethylenimine-soaked filters, washing with rinsing buffer (3×) and drying first under vacuum for 5 min and then under ambient conditions for ≥2 h. The resulting filters had circular perforations for each data point, which were removed with forceps and placed in a scintillation vial. Scintillation vials were filled with Bio-Safe II scintillation fluid (5 mL) and measured for radioactivity using a Beckman LS 6000SC scintillation counter. Counts per minute (cpm) were averaged for each triplicate dilution. The data were plotted—cpm vs. log(concentration)—using Prism® by GraphPad Software and an IC50 was determined using that program's built-in one-site competition least squares regression function. Ki values were calculated using the equation: Ki=IC50/(1+([3H−PDBu]/Kd)). The Kd of ^3H-PDBu for PKC isoforms was measured separately via saturation binding experiments under identical conditions.

[2] = target: T1, PKCα (Homo sapiens, UniProt P17252); test: cell-free competitive PKC binding assay with [3H]-phorbol dibutyrate; details: competition with [3H]-PDBu, recombinant human PKC isoform
T1 construct: purchased Invitrogen
Experimental: as §1
(§4) To a 50 mL polypropylene tube was added Tris-HCl (pH 7.4, 1 M, 1 mL), KCl (1 M, 2 mL), CaCl2) (0.1 M, 30 μL), and bovine serum albumin (BSA, 40 mg, Sigma-Aldrich). This mixture was diluted to 20 mL with deionized H2O and mixed gently. The buffer was stored on ice until use.
(§5) For every two assays, 3.5 mg phosphatidylserine (Avanti Polar Lipids, porcine, 25 mg/mL CHCl3 solution) was concentrated by removing chloroform under a stream of nitrogen followed by reduced pressure. The solid PS was suspended as vesicles in freshly prepared PKC binding assay buffer (3.5 mL) by sonicating six times for 30 sec, with a 30 sec rest between sonications (Branson Sonifier 250, power=2, 50% duty cycle). The resulting milky cloudy mixture (1 mg/mL) was stored on ice until use.
as §2
(§6) ^3H-PDBu (American Radiolabeled Chemicals, Inc.; 1 mCi/mL acetone solution; specific activity: 20 Ci/mmol) was diluted […] with DMSO. The resulting 500 nM stock solution was further diluted with DMSO to 30 nM.
(§7) Compound dilutions were prepared by serially diluting from a chosen “high” concentration by factors of 3 or 4.
(§8) To a polypropylene tube was added 3.3 mL of 1 mg/mL PS vesicles solution, 11 mL of PKC isoform solution, and 1.1 mL of 30 nM ^3H-PDBu solution were added. The resulting solution was vortexed to mix and stored on ice.
(§9) Materials: • Glass-fiber filters (Whatman GF/B) were prepared by soaking them in a solution of aqueous polyethyleneimine (10% by vol, 18 mL) in deionized water (600 mL) for ≥1 h. • 500 mL “rinsing buffer” of 20 mM Tris, pH 7.4 was cooled on ice for the duration of the incubation period and for the remainder of the assay.
as §3

[3] = target: T2, PKCδ (Homo sapiens, UniProt Q05655); test: as above; details: competition with [3H]-PDBu, recombinant human PKC isoform
T2 construct: purchased Invitrogen
T2 sequence (Q05655 whole entry, canonical isoform): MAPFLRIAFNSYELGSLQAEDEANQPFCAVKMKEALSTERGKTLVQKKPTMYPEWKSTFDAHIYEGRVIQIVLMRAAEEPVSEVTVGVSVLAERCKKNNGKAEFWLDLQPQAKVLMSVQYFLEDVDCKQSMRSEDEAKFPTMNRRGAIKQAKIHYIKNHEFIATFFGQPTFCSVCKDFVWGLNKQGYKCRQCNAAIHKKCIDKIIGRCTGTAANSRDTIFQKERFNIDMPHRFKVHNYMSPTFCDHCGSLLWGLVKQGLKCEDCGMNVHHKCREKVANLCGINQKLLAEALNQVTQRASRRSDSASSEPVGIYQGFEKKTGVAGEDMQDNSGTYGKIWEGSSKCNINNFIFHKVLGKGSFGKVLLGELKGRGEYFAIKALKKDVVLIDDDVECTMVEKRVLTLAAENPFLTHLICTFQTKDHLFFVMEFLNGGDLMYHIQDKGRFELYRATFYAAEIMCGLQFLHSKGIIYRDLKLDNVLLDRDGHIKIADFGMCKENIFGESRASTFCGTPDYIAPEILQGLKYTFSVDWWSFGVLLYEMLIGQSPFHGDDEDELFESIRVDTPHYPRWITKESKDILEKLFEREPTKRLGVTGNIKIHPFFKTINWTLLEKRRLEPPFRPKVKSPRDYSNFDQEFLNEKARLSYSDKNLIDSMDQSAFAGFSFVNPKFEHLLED
Experimental: as §1, §4, §5, §2, §6, §7, §8, §9
Triplicate data points were obtained for each analog concentration. For each data point, 280 μL of “Master Mix” Solution and 20 μL of analog compound at a specified concentration were added to a polypropylene tube. […] Maximal ^3H-PDBu binding was assessed in triplicate by substitution of the analog compound with 20 μL DMSO. The solutions were vortexed to mix, incubated at 37° C. for 10 min, and incubated on ice for at least 30 min prior to filtration. Using a Brandel Harvester, the assay contents from each polypropylene tube were vacuum-filtered through polyethylenimine-soaked filters, washing with rinsing buffer (3×) and drying first under vacuum for 5 min and then under ambient conditions for ≥2 h. The resulting filters had circular perforations for each data point, which were removed with forceps and placed in a scintillation vial. Scintillation vials were filled with Bio-Safe II scintillation fluid (5 mL) and measured for radioactivity using a Beckman LS 6000SC scintillation counter. Counts per minute (cpm) were averaged for each triplicate dilution. The data were plotted—cpm vs. log(concentration)—using Prism® by GraphPad Software and an IC50 was determined using that program's built-in one-site competition least squares regression function. […] The Kd of ^3H-PDBu for PKC isoforms was measured separately via saturation binding experiments under identical conditions.

[4] = tested on: CD22 surface expression in 2F7 cells; test: CD22 surface expression assay, AIDS-NHL cell line 2F7; details: 1 nM or 10 nM, 48 hours
Experimental: (§10) AIDS-NHL cell lines were incubated in IF10 medium, consisting of IMDM medium (Life technologies) containing 10% fetal bovine serum (FBS, Omega Scientific), 100 units/mL of penicillin, and 100 μg/ml of streptomycin (Invitrogen). Cells were incubated at 37° C. in 5% CO2.
(§11) Cells were exposed to compound for the either 24 or 48 h before staining and flow cytometric analysis of receptor levels.
(§12) Cells in each well were washed with phosphate buffered saline (PBS) containing 2% FBS, then cells were centrifuged for 9 min at 233 xg and resuspended in 50 μL of a 1:1 dilution of phosphate buffered saline (PBS): Human AB serum (Sigma). […] Stained samples were stored at 4° C. Flow cytometry samples were analyzed using a FACSCelesta (BD Biosciences) flow cytometer and data were analyzed using FlowJo software (version 10).
(§13) Panel C: JB cells were incubated with 1 nM (left hand bars) or 10 nM (right hand bars) of compound for 48 hours. CD22 surface expression was then assayed by flow cytometry (n=6 biological replicates; data presented as mean values ±SE). Panel D: 2F7 cells were incubated with 1 nM (left hand bars) or 10 nM (right hand bars) of compound for 48 hours. CD22 surface expression was then assayed by flow cytometry (n=6 biological replicates; data presented as mean values ±SE).

[5] = tested on: CD22 surface expression in JB cells; test: CD22 surface expression assay, AIDS-NHL cell line JB; details: 1 nM or 10 nM, 48 hours
Experimental: as §10, §11, §12, §13

Structure (SMILES) | binding affinity to PKC, in words [1] | Ki [2] | Ki [3] | upregulated CD22 surface expression [4] | upregulated CD22 surface expression [5]
CCCCCC#CC(=O)O[C@H]1/C(=C/C(=O)OC)C[C@H]2C[C@H]([C@@H](C)O)OC(=O)C[C@H](O)C[C@@H]3C[C@H](OC(C)=O)C(C)(C)[C@](O)(C[C@@H]4C[C@@](O)(CO)C[C@H](/C=C/C(C)(C)[C@]1(O)O2)O4)O3 [SUW203] | single-digit nanomolar affinity | 1 nM | 4.1 nM | – | –
CCC/C=C/C=C/C(=O)O[C@H]1/C(=C/C(=O)OC)C[C@H]2C[C@H]([C@@H](C)O)OC(=O)C[C@H](O)C[C@@H]3C[C@H](OC(C)=O)C(C)(C)[C@](O)(C[C@@H]4C[C@@H](OC(C)=O)C[C@H](/C=C/C(C)(C)[C@]1(O)O2)O4)O3 [SUW207] | – | 2 nM | 5.4 nM | – | –
CCC/C=C/C=C/C(=O)O[C@H]1/C(=C/C(=O)OC)C[C@H]2C[C@H]([C@@H](C)O)OC(=O)C[C@H](O)C[C@@H]3C[C@H](OC(C)=O)C(C)(C)[C@](O)(C[C@@H]4C[C@H](OC(C)=O)C[C@H](/C=C/C(C)(C)[C@]1(O)O2)O4)O3 [SUW206] | – | 1 nM | 1.3 nM | – | –
CCCC=CC=CC(=O)OC1C(=CC(=O)OC)CC2CC(C(C)O)OC(=O)CC(O)CC3CC(OC(C)=O)C(C)(C)C(O)(CC4CC(=CC(=O)OCC)CC(C=CC(C)(C)C1(O)O2)O4)O3 (centres unmarked) [SUW217] | – | 9.2 nM | 9.4 nM | – | –
C=CCOC(=O)/C=C1/C[C@H]2C[C@]3(O)O[C@H](C[C@@H](O)CC(=O)O[C@@H]([C@@H](C)O)C[C@@H]4C/C(=C\C(=O)OC)[C@H](OC(=O)/C=C/C=C/CCC)[C@@](O)(O4)C(C)(C)/C=C/[C@@H](C1)O2)C[C@H](OC(C)=O)C3(C)C [SUW229] | – | 1.8 nM | 1.2 nM | ~2 fold | ~2 fold
CCCC=CC=CC(=O)OC1C(=CC(=O)OC)CC2CC(C(C)O)OC(=O)CC(O)CC3CC(OC(C)=O)C(C)(C)C(O)(CC4CC(=CC(=O)OCC)CC(C=CC(C)(C)C1(O)O2)O4)O3 (centres unmarked) [SUW218] | – | 7.1 nM | 6.6 nM | – | –
CCCCCCCC(=O)O[C@H]1/C(=C/C(=O)OC)C[C@H]2C[C@H]([C@@H](C)O)OC(=O)C[C@H](O)C[C@@H]3C[C@H](OC(C)=O)C(C)(C)[C@](O)(C[C@@H]4C[C@@H](C)C[C@H](/C=C/C(C)(C)[C@]1(O)O2)O4)O3 [SUW226] | – | 5.8 nM | 6.6 nM | – | –
